The source of these data is ChEMBL document CHEMBL4665667, “Lowering Lipophilicity by Adding Carbon: AzaSpiroHeptanes, a logD Lowering Twist” (ACS Med Chem Lett, 2019).

Each structure is given as a SMILES string. Where only a bound is given, the exact number is not on record here.

Data set [1] can be described thus: Intrinsic clearance in rat hepatocytes assessed per 10^6 cells. It counts as ADME, cell-based, Hepatocyte. The settings on record: read-out: CLH.
Data set [2] can be described thus: Intrinsic clearance in human liver microsomes. As to conditions: read-out: CLH. The format is ADME, Microsome. In general terms: Microsomes from liver hold many membrane-bound enzymes, among them those of drug oxidation.
A short description of data set [3]: Apparent permeability in human Caco2 cells at 10 uM. It counts as ADME, cell-based. The settings on record: Caco-2. A general note: Caco-2 monolayers are a common model of the intestinal barrier.
Data set [4] can be described thus: Dissociation constant, pKa of compound. It counts as physicochemical.
Data set [5] in a line: Lipophilicity, logD of compound at pH 7.4 by Shake-flask distribution coefficient method. The format is physicochemical. The settings on record: octanol/water.
Data set [6] in a line: Intrinsic clearance in human hepatocytes assessed per 10^6 cells. As to conditions: read-out: CLH. The format is ADME, cell-based, Hepatocyte.
Data set [7] has as its target T1, Glucose-dependent insulinotropic receptor (Homo sapiens, UniProt Q8TDV5).
T1 sequence (Q8TDV5 whole entry): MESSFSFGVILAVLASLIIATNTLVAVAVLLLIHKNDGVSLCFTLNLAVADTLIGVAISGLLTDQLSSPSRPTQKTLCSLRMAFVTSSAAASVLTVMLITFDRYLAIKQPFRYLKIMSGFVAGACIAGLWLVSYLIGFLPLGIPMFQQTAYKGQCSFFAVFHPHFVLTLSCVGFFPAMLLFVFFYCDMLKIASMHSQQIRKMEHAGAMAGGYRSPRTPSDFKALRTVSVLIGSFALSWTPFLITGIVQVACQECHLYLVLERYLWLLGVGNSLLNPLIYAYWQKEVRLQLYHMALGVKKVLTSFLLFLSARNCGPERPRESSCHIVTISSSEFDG
As to the kind of experiment: Agonist activity at human GPR119 expressed in HEK293 cells assessed as increase in cAMP level incubated for 45 mins by cAMP HTRF assay. It counts as functional, cell-based.

Data set [8] is described as follows: Lipophilicity, logD of compound in octanol and buffer in pH 7.4 incubated for 30 mins under shaking condition by LC/UV analysis. It counts as physicochemical.
A short description of data set [9]: Apparent permeability across apical to basolateral side in MDCK cells incubated at 10 uM. The settings on record: dog. It counts as ADME, cell-based, Canis lupus familiaris.

For orientation: Papp means a coefficient for how fast a substance crosses the barrier. The term pKa denotes the negative logarithm of the acid dissociation constant. One may read the logD as the decadic logarithm of the distribution of all forms, ionised or not, between an organic phase and buffer at a given pH. Low readings indicate a more hydrophilic compound, high ones a more lipophilic compound. For `c1nc(N[C@H]2CC[C@H](N3CC4(COC4)C3)CC2)c2c(C3CCOCC3)c[nH]c2n1`, the hepatocyte CLint in data set [1] was 8 µL/min/1e6 cells; in data set [6], less than 1 µL/min/1e6 cells. The microsomal CLint in [2] was less than 3 µL/min/mg. Also, in [3], the Papp at 10 µM was 4.1 ×10⁻⁶ cm/s. Moreover, the pKa in data set [4] came out at 8.2. In addition, the log distribution coefficient (logD) in [5] is 0.8.

Broadly, the EC50 is the concentration at which the effect is half-maximal. For orientation: Papp A→B means the apparent permeability from the apical to the basolateral side of a cell layer. On to `CC(C)(C)OC(=O)N1CC2(C1)CN(c1ncc(OCc3ccncc3C#N)cn1)C2`, for which the EC50 in [7] came to 16 µM. In data set [8], this molecule displayed a logD at 0.5 h of 2.5. Besides, the Papp A→B at 10 µM in data set [9] worked out at 17 ×10⁻⁶ cm/s.
